Experiment [1] concerns the target T1, protein-protein interaction between hSOS1 and hKRASG12C (Homo sapiens, UniProt Q07889).
T1 construct: GST-hSOS1, 564-1049aa expressed and purified in-house
T1 sequence (Q07889 564-1049): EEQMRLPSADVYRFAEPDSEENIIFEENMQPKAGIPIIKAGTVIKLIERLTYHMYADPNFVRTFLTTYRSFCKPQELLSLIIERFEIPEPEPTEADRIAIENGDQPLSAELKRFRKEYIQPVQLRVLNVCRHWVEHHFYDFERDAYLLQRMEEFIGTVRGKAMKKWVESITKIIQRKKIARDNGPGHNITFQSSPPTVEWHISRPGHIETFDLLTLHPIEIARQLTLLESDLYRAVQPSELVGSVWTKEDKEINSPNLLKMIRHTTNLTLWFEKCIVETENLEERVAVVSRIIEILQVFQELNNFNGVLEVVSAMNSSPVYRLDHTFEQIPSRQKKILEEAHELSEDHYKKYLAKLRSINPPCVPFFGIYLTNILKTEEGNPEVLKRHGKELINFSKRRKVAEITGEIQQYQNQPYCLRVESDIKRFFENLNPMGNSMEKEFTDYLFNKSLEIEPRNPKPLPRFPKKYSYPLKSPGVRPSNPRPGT
In words: KRAS-SOS1 interaction assay (HTRF). The experiment is classed as binding. To be noted: GST-hSOS1 564-1049aa, HIS-hKRASG12C, read-out: KRAS-SOS1 Interaction inhibition IC50. The essentials:
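GST-hSOS1 (564-1049aa) at 10-50 nM working solution pre-incubated with compounds 10 min at 20° C in HEPES pH 7.4 buffer with EDTA, DTT, BSA and Igepal. HIS-hKRASG12C (100-300 nM working solution) added for 30-60 min, then anti-GST-d2/anti-HIS-Tb detection; percent inhibition from the 665/620 nm ratio.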
On the technique in general: In TR-FRET formats the signal depends on donor and acceptor labels being close together.

Experiment [2] concerns the target T2, nucleotide exchange on hKRASG12C mediated by hSOS1 (Homo sapiens, UniProt Q07889).
T2 construct: HIS-hSOS1, 564-1049aa mediated GTP loading onto GST-hKRASG12C; His (N); made in house
T2 sequence (Q07889 564-1049): T1 sequence (Q07889 564-1049)
In words: Guanine nucleotide exchange assay (GNEA, HTRF). To be noted: HIS-hSOS1 564-1049aa mediated GTP loading onto GST-hKRASG12C 1-169aa, read-out: Guanine nucleotide exchange inhibition IC50. The experiment is classed as biochemical. In a few lines:
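Compounds were pre-incubated 10 min at 20 °C with HIS-hSOS1 (564-1049aa) and EDA-GTP-DY-647P1 (working solution 10-50 nM and 200 nM) in pH 7.4 HEPES with NaCl, MgCl2, DTT, BSA and Igepal. GST-hKRASG12C (1-169aa, 25-125 nM working solution) plus anti-GST-Tb was added for 30-60 min at 20 °C. Percent inhibition came from the HTRF 665/620 nm ratio.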

The test system of experiment [3] is pERK after EGF stimulation in DLD1 cells. In words: ERK phosphorylation assay (alphascreen pERK). The class given is cell-based. To be noted: Homo sapiens, DLD-1, 2 h compound, 200 ng/ml hEGF for 5 minutes, read-out: ERK phosphorylation inhibition IC50. The essentials:
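DLD1 cells pretreated with test compounds for 2 h, then stimulated with 200 ng/ml hEGF for 5 min. Lysates assayed by AlphaScreen SureFire for ERK1/2 p-T202/Y204, read after 2 h at 25–28 °C. % inhibition relative to the stimulated-minus-unstimulated vehicle window.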

SMILES strings stand for the structures.

One may read the IC50 as the concentration that inhibits the measured activity by half.

As to `Cc1nc(N[C@H](C)c2cccc(C(F)(F)C(C)(C)O)c2F)c2cc3c(cc2n1)N(C)C(=O)C3C` (mixture of isomers) [Compound 95, (R&S)-4-(((R)-1-(3-(1,1-difluoro-2-hydroxy-2-methylpropyl)-2-fluorophenyl)ethyl)amino)-2,6,8-trimethyl-6,8-dihydro-7H-pyrrolo[3,2-g]quinazolin-7-one], the IC50 is 0.011 to 0.025 µM in experiment [1], 0.031 to 0.13 µM in experiment [2] and 0.001 to 0.2 µM in experiment [3].

With `CCN1C(=O)C(C)(C)c2cc3nc(C)nc(N[C@H](C)c4cccc(C(F)(F)C(C)(C)O)c4F)c3cc21` [Compound 64, (R)-4-((1-(3-(1,1-difluoro-2-hydroxy-2-methylpropyl)-2-fluorophenyl)ethyl)amino)-6-ethyl-2,8,8-trimethyl-6,8-dihydro-7H-pyrrolo[2,3-g]quinazolin-7-one], the IC50 in experiment [1] was in the range of 0.001 to 0.01 µM; in experiment [2] it was 0.001 to 0.03 µM; in experiment [3], 0.001 to 0.2 µM.

`CO[C@]1(C)C(=O)N(C)c2cc3c(N[C@H](C)c4cccc(C(F)(F)[C@](C)(O)CN(C)C)c4F)nc(C)nc3cc21` (racemic) [Compound 135a, (S/R)-4-(((R)-1-(3-((S/R)-3-(dimethylamino)-1,1-difluoro-2-hydroxy-2-methylpropyl)-2-fluorophenyl)ethyl)amino)-8-methoxy-2,6,8-trimethyl-6,8-dihydro-7H-pyrrolo[2,3-g]quinazolin-7-one]: the IC50 was 0.001 to 0.01 µM in experiment [1], 0.001 to 0.03 µM in experiment [2] and 0.001 to 0.2 µM in experiment [3].

Take `Cc1nc(N[C@H](C)c2cccc(C(F)(F)C(C)(C)O)c2F)c2cc3c(cc2n1)OCC(C)(C)N3C` [Compound 37, (R)-1,1-Difluoro-1-(2-fluoro-3-(1-((2,6,7,7-tetramethyl-7,8-dihydro-6H-[1,4]oxazino[3,2-g]quinazolin-4-yl)amino)ethyl)phenyl)-2-methylpropan-2-ol]: the IC50 in experiment [1] was 0.001 to 0.01 µM; in experiment [2] it was 0.001 to 0.03 µM; in experiment [3], 0.001 to 0.2 µM.

Consider `Cc1nc(N[C@H](C)c2cccc(C(F)(F)CO)c2F)c2cc3c(cc2n1)O[C@@H](C)CN3C` (racemic) [Compound 36a, 2,2-difluoro-2-(2-fluoro-3-((R)-1-(((S/R)-2,6,8-trimethyl-7,8-dihydro-6H-[1,4]oxazino[3,2-g]quinazolin-4-yl)amino)ethyl)phenyl)ethan-1-ol], for which the results for the IC50 in experiment [1], in experiment [2] and in experiment [3] were 0.001 to 0.01 µM, 0.001 to 0.03 µM and 0.001 to 0.2 µM, respectively.

Consider `CCOC1(C)C(=O)N(C)c2cc3c(N[C@H](C)c4cccc(C(F)(F)C(C)(C)O)c4F)nc(C)nc3cc21` (single isomer, unassigned) [Compound 121a], for which the figures for the IC50 in experiment [1], in experiment [2] and in experiment [3] were 0.001 to 0.01 µM, 0.031 to 0.13 µM and 0.001 to 0.2 µM, respectively.

For `COCC[C@]1(C)C(=O)N(C)c2cc3c(N[C@H](C)c4cccc(C(F)(F)C(C)(C)O)c4F)nc(C)nc3cc21` (single isomer, unassigned) [Compound 123a], the IC50 in experiment [1] fell in the range of 0.001 to 0.01 µM; in experiment [2], 0.001 to 0.03 µM; in experiment [3], 0.001 to 0.2 µM.

With `Cc1nc(N[C@H](C)c2cccc(C(F)(F)CO)c2F)c2cc3c(cc2n1)OC1(CC1)C(=O)N3C` [Compound 25, (R)-4′-((1-(3-(1,1-difluoro-2-hydroxyethyl)-2-fluorophenyl)ethyl)amino)-2′,6′-dimethylspiro[cyclopropane-1,8′-[1,4]oxazino[3,2-g]quinazolin]-7′(6′H)-one], the results for the IC50 in experiment [1], in experiment [2] and in experiment [3] were 0.001 to 0.01 µM, 0.001 to 0.03 µM and 0.001 to 0.2 µM, respectively.

Turning to `Cc1nc(N[C@H](C)c2cccc(C(F)(F)C(C)(C)O)c2F)c2cc3c(cc2n1)C(C)C(=O)N3C` (mixture of isomers) [Compound 99, (R&S)-4-(((R)-1-(3-(1,1-difluoro-2-hydroxy-2-methylpropyl)-2-fluorophenyl)ethyl)amino)-2,6,8-trimethyl-6,8-dihydro-7H-pyrrolo[2,3-g]quinazolin-7-one], the IC50 in experiment [1] lay in the range of 0.001 to 0.01 µM; in experiment [2] it was 0.001 to 0.03 µM; in experiment [3], 0.001 to 0.2 µM.

For `Cc1nc(N[C@H](C)c2cccc(C(F)(F)C(C)(C)O)c2F)c2cc3c(cc2n1)N(C)[C@@H](C)C(=O)N3C` (racemic) [Compound 27a, (S/R)-4-(((R)-1-(3-(1,1-difluoro-2-hydroxy-2-methylpropyl)-2-fluorophenyl)ethyl)amino)-2,6,8,9-tetramethyl-8,9-dihydropyrazino[2,3-g]quinazolin-7(6H)-one], the half-inhibitory concentration (IC50) in experiment [1] was 0.001 to 0.01 µM; in experiment [2], 0.001 to 0.03 µM; in experiment [3], 0.001 to 0.2 µM.

As for `Cc1nc(N[C@H](C)c2cccc(C(F)(F)C(C)(C)O)c2F)c2cc3c(cc2n1)OC(C)(C)CN3C` [Compound 34, (R)-1,1-Difluoro-1-(2-fluoro-3-(1-((2,6,8,8-tetramethyl-7,8-dihydro-6H-[1,4]oxazino [3,2-g]quinazolin-4-yl)amino)ethyl)phenyl)-2-methylpropan-2-ol], the IC50 in experiment [1] is 0.001 to 0.01 µM; in experiment [2], 0.031 to 0.13 µM; in experiment [3], 0.001 to 0.2 µM.

`CCn1c(=O)n(C)c2cc3nc(C)nc(N[C@H](C)c4cccc(C(F)(F)C(C)(C)O)c4F)c3cc21` [Compound 104, (R)-8-((1-(3-(1,1-difluoro-2-hydroxy-2-methylpropyl)-2-fluorophenyl)ethyl)amino)-1-ethyl-3,6-dimethyl-1H-imidazo[4,5-g]quinazolin-2(3H)-one]: the IC50 in experiment [1] is 0.001 to 0.01 µM; in experiment [2], 0.001 to 0.03 µM; in experiment [3], 0.001 to 0.2 µM.

For `Cc1nc(N[C@H](C)c2cccc(C(F)(F)C(C)(O)CO)c2F)c2cc3c(cc2n1)C(C)(C)C(=O)N3C` (single isomer, unassigned) [Compound 76a], the figures for the IC50 in experiment [1], in experiment [2] and in experiment [3] were 0.001 to 0.01 µM, 0.001 to 0.03 µM and 0.001 to 0.2 µM, respectively.

On to `C[C@@H](Nc1nc(C2CC2)nc2cc3c(cc12)C(C)(C)C(=O)N3C)c1cccc(C(F)(F)C(C)(C)O)c1F` [Compound 110, (R)-2-cyclopropyl-4-((1-(3-(1,1-difluoro-2-hydroxy-2-methylpropyl)-2-fluorophenyl)ethyl)amino)-6,6,8-trimethyl-6,8-dihydro-7H-pyrrolo[3,2-g]quinazolin-7-one], for which the IC50 lay in the range of 0.011 to 0.025 µM in experiment [1], 0.031 to 0.13 µM in experiment [2] and 0.201 to 0.5 µM in experiment [3].

`Cc1nc(N[C@H](C)c2cccc(C(F)(F)C(C)(C)O)c2F)c2cc3c(cc2n1)C(C)(C)CC(=O)N3C` [Compound 42, (R)-4-((1-(3-(1,1-difluoro-2-hydroxy-2-methylpropyl)-2-fluorophenyl)ethyl)amino)-2,6,9,9-tetramethyl-8,9-dihydropyrido[2,3-g]quinazolin-7(6H)-one]: the IC50 in experiment [1] is 0.001 to 0.01 µM; in experiment [2], 0.001 to 0.03 µM; in experiment [3] it was 0.001 to 0.2 µM.

For the molecule `Cc1nc(N[C@H](C)c2cccc(C(F)(F)CO)c2F)c2cc3c(cc2n1)N(C)C(=O)C3(C)C` [Compound 80, (R)-4-((1-(3-(1,1-difluoro-2-hydroxyethyl)-2-fluorophenyl)ethyl)amino)-2,6,6,8-tetramethyl-6,8-dihydro-7H-pyrrolo[3,2-g]quinazolin-7-one], the IC50 in experiment [1] was in the range of 0.001 to 0.01 µM; in experiment [2], 0.001 to 0.03 µM; in experiment [3], 0.001 to 0.2 µM.

Take `CCC1(OC)C(=O)N(C)c2cc3c(N[C@H](C)c4cc(N)cc(C(F)(F)F)c4)nc(C)nc3cc21` (stereo partly drawn) [Compound 139, (R & S)-4-(((R)-1-(3-amino-5-(trifluoromethyl)phenyl)ethyl)amino)-8-ethyl-8-methoxy-2,6-dimethyl-6,8-dihydro-7H-pyrrolo[2,3-g]quinazolin-7-one]: the results for the IC50 in experiment [1], in experiment [2] and in experiment [3] were 0.011 to 0.025 µM, 0.031 to 0.13 µM and 0.201 to 0.5 µM, respectively.

On to `Cc1nc(N[C@H](C)c2cccc(C(F)(F)C(C)(C)O)c2F)c2cc3c(cc2n1)C(C)(C)CN3C` [Compound 75, (R)-1,1-difluoro-1-(2-fluoro-3-(1-((2,6,8,8-tetramethyl-7,8-dihydro-6H-pyrrolo[2,3-g]quinazolin-4-yl)amino)ethyl)phenyl)-2-methylpropan-2-ol], for which the values for the IC50 in experiment [1], in experiment [2] and in experiment [3] were 0.011 to 0.025 µM, 0.031 to 0.13 µM and 0.001 to 0.2 µM, respectively.
